Source: patent publication US20240408169A1 (priority 2023, published 2024)
Where two headings read alike, the source gives them in different places. *1 amine or outer side, *2 acyl side, *3 side chain or, on linkers, in order; H or OH if unused. Where a SMILES comes first, the peptide text is derived from it. Bridges are numbered along the chain shown (N, C = ends). [ ]: non-standard residue; d: D form. The star is where a group is joined. X74 = C[C@@H]1CN(c2ccc(-c3ccc(Cl)cc3C[C@@H](C(=O)[*:2])N(C)[*:1])cc2)C[C@@H](C)O1; X48 = CN(C)C[C@H]1CN(c2ccc(-c3ccc(Cl)cc3C[C@@H](C(=O)[*:2])N(C)[*:1])cc2)CCO1; X26 = CN([C@@H](Cc1cc(F)ccc1-c1cnn(C2CC2)c1)C(=O)[*:2])[*:1]; X89 = CN([C@@H](Cc1cc(Cl)ccc1-c1cnn(CC#N)c1)C(=O)[*:2])[*:1]; NMehhhLys(Me) = CN([C@@H](CCCCCCCN(C)[*:3])C(=O)[*:2])[*:1]; NMe3Pal(2-OiPr,5-Cl) = CN[C@@H](Cc1cc(Cl)cnc1OC(C)C)C(=O)O; X28 = CN([C@@H](Cc1cc(Cl)cnc1OC1CCC1)C(=O)[*:2])[*:1]; Cyclobutanecarbonyl(1-CF3) = O=C(C1(C(F)(F)F)CCC1)*; cBuCO(3,3-F2-1-CF3) = O=C(C1(C(F)(F)F)CC(F)(F)C1)*; Pro(trans-4-F) = O=C(O)[C@@H]1C[C@@H](F)CN1; Gly(cPr) = N[C@H](C(=O)O)C1CC1

Experiments:
CyclinA2/CDK2 = molecular target: T1, CyclinA2/CDK2 (Homo sapiens, UniProt P20248); test: Fluorescence Polarization (FP) competitive binding assay, Cyclin A2/Cdk2;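 further: plates equilibrated two hours at room temperature before polarization reading, IC50 fitted from eight-concentration compound titration curves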
T1 construct: purchased CRELUX Protein Services

CyclinE1/CDK2 = molecular target: T2, CyclinE1/CDK2 (Homo sapiens, UniProt P24864); test: Fluorescence Polarization (FP) competitive binding assay, Cyclin E1/Cdk2;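 further: readings taken after two-hour equilibration at room temperature in HEPES buffer with NaCl, DTT, NP-40 and BSA, IC50 fitted from eight-concentration serial dilution series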
T2 construct: purchased Eurofins, discovery 14-475

WI-38 cells = test: MTT proliferation assay, WI-38; type: cell-based; details: 3 days compound exposure, 1:3 serial dilution starting at 10 μM;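 further: Eight- or ten-point dilution series, with exposure length chosen to span about three to four cell doublings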
OVCAR3 cells = test: MTT proliferation assay, OVCAR3; type: cell-based; details: 5 days compound exposure, 1:3 serial dilution starting at 10 μM;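 further: compound given as an 8- or 10-point series, one day after plating, with exposure covering roughly 3-4 cell doublings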
CyclinB1/CDK1 = molecular target: T3, CyclinB1/CDK1 (Homo sapiens, UniProt P14635); test: Fluorescence Polarization (FP) competitive binding assay, Cyclin B1/Cdk1;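 further: fluorescence polarization read after equilibration at room temperature, with IC50 taken from serially diluted dose-response curves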
T3 construct: purchased Eurofins, discovery 14-450

NCI-H1048 cells = test: MTT proliferation assay, NCI-H1048; type: cell-based; details: 5 days compound exposure, 1:3 serial dilution starting at 10 μM;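 further: Dose-response in 96-well plates over 8 or 10 concentration points, with exposure spanning 3-4 cell doublings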
[1] = 8 nM Cyclin A2/Cdk2, 2 nM FAM probe, average of 2-3 independent experiments, read-out: Cyclin A FP IC50
[2] = 10 nM Cyclin E1/Cdk2, 2 nM FAM probe, average of 2-3 independent experiments, read-out: Cyclin E FP IC50
[3] = 10 nM Cyclin B1/Cdk1, 2 nM FAM probe; average of 2-3 independent experiments; read-out: Cyclin B FP IC50

Q: For `CC(C)C[C@@H]1NC(=O)[C@@H](N(C)C(=O)[C@@H](NC(=O)[C@@H]2C[C@@H](F)CN2C(=O)C2(C(F)(F)F)CC(F)(F)C2)C2CC2)CCCCCCCN(C)C(=O)[C@H](Cc2cc(F)ccc2-c2cnn(C3CC3)c2)N(C)C1=O` [Example 68] ({cBuCO(3,3-F2-1-CF3)}-[Pro(trans-4-F)][Gly(cPr)][NMehhhLys(Me)]L[X26]; lactam 3-C), which IC50 (CyclinA2/CDK2; [1]) is on record?
A: Its IC50 is 20 nM.

Q: And the IC50 (CyclinE1/CDK2; [2])?
A: The IC50 was 120 nM.

Q: And the GI50 (WI-38 cells)?
A: The GI50 was 12800 nM.

Q: And the GI50 (OVCAR3 cells)?
A: Its GI50 is 10 nM.

Q: And the IC50 (CyclinB1/CDK1; [3])?
A: Its IC50 is 20 nM.

Q: And the GI50 (NCI-H1048 cells)?
A: Its GI50 is 10 nM.

Q: What does the source list for `CC(C)C[C@@H]1NC(=O)[C@@H](N(C)C(=O)[C@@H](NC(=O)[C@@H]2C[C@@H](F)CN2C(=O)C2(C(F)(F)F)CC(F)(F)C2)C2CC2)CCCCCCCN(C)C(=O)[C@H](Cc2cc(Cl)ccc2-c2ccc(N3C[C@@H](C)O[C@H](C)C3)cc2)N(C)C1=O` [Example 389] ({cBuCO(3,3-F2-1-CF3)}-[Pro(trans-4-F)][Gly(cPr)][NMehhhLys(Me)]L[X74]; lactam 3-C)?
A: IC50 (CyclinA2/CDK2; [1]): 20 nM; IC50 (CyclinE1/CDK2; [2]): 790 nM; GI50 (WI-38 cells): 17600 nM; GI50 (OVCAR3 cells): 10 nM; IC50 (CyclinB1/CDK1; [3]): 20 nM; GI50 (NCI-H1048 cells): 20 nM

Q: With `CC(C)C[C@@H]1NC(=O)[C@@H](N(C)C(=O)[C@@H](NC(=O)[C@@H]2C[C@@H](F)CN2C(=O)C2(C(F)(F)F)CCC2)C2CC2)CCCCCCCN(C)C(=O)[C@H](Cc2cc(Cl)cnc2OC(C)C)N(C)C1=O` [Example 119] ({Cyclobutanecarbonyl(1-CF3)}-[Pro(trans-4-F)][Gly(cPr)][NMehhhLys(Me)]L[NMe3Pal(2-OiPr,5-Cl)]; lactam 3-C) as the compound, how does the IC50 (CyclinA2/CDK2; [1]) read?
A: Its IC50 is 30 nM.

Q: And the IC50 (CyclinE1/CDK2; [2])?
A: The IC50 was 100 nM.

Q: What about the GI50 (WI-38 cells) of the same compound?
A: The GI50 was 8710 nM.

Q: And the GI50 (OVCAR3 cells)?
A: The GI50 was 300 nM.

Q: What about the IC50 (CyclinB1/CDK1; [3]) of the same compound?
A: Its IC50 is 20 nM.

Q: And the GI50 (NCI-H1048 cells)?
A: Its GI50 is 250 nM.

Q: For `CC(C)C[C@@H]1NC(=O)[C@@H](N(C)C(=O)[C@@H](NC(=O)[C@@H]2C[C@@H](F)CN2C(=O)C2(C(F)(F)F)CC(F)(F)C2)C2CC2)C/C=C\CCCCN(C)C(=O)[C@H](Cc2cc(Cl)cnc2OC2CC2)N(C)C1=O` [Example 258], which IC50 (CyclinA2/CDK2; [1]) is on record?
A: Its IC50 is 70 nM.

Q: And the IC50 (CyclinE1/CDK2; [2])?
A: The IC50 was 120 nM.

Q: And the GI50 (WI-38 cells)?
A: The GI50 was 14200 nM.

Q: What about the GI50 (OVCAR3 cells) of the same compound?
A: Its GI50 is 70 nM.

Q: What about the IC50 (CyclinB1/CDK1; [3]) of the same compound?
A: Its IC50 is 20 nM.

Q: And the GI50 (NCI-H1048 cells)?
A: The GI50 was 70 nM.

Q: Which IC50 (CyclinA2/CDK2; [1]) does the source give for `CC(C)C[C@@H]1NC(=O)[C@@H](N(C)C(=O)[C@@H](NC(=O)[C@@H]2C[C@@H](F)CN2C(=O)C2(C(F)(F)F)CC(F)(F)C2)C2CC2)CC=CCCCCNC(=O)[C@H](Cc2cc(Cl)ccc2-c2cnn(C3CC3)c2)N(C)C1=O` [Example 189] here?
A: Its IC50 is 50 nM.

Q: And the IC50 (CyclinE1/CDK2; [2])?
A: The IC50 was 850 nM.

Q: What about the GI50 (WI-38 cells) of the same compound?
A: Its GI50 is 3670 nM.

Q: What about the GI50 (OVCAR3 cells) of the same compound?
A: Its GI50 is 80 nM.

Q: What about the IC50 (CyclinB1/CDK1; [3]) of the same compound?
A: The IC50 was 20 nM.

Q: And the GI50 (NCI-H1048 cells)?
A: Its GI50 is 130 nM.

Q: `CC(C)C[C@@H]1NC(=O)[C@@H](N(C)C(=O)[C@@H](NC(=O)[C@@H]2C[C@@H](F)CN2C(=O)[C@@]2(C(F)(F)F)CCCCO2)C2CC2)C/C=C\CCCCN(C)C(=O)[C@H](Cc2cc(Cl)ccc2-c2cnn(C)c2)N(C)C1=O` [Example 174] was tested. Which IC50 (CyclinA2/CDK2; [1]) did it give?
A: The IC50 was 20 nM.

Q: And the IC50 (CyclinE1/CDK2; [2])?
A: The IC50 was 100 nM.

Q: And the GI50 (WI-38 cells)?
A: Its GI50 is 6980 nM.

Q: What about the GI50 (OVCAR3 cells) of the same compound?
A: The GI50 was 10 nM.

Q: And the IC50 (CyclinB1/CDK1; [3])?
A: The IC50 was 20 nM.

Q: What about the GI50 (NCI-H1048 cells) of the same compound?
A: The GI50 was 10 nM.

Q: Which IC50 (CyclinA2/CDK2; [1]) does the source give for `CC(C)C[C@@H]1NC(=O)[C@@H](N(C)C(=O)[C@@H](NC(=O)[C@@H]2C[C@@H](F)CN2C(=O)C2(C(F)(F)F)CC(F)(F)C2)C2CC2)CCCCCCCN(C)C(=O)[C@H](Cc2cc(Cl)cnc2OC2CCC2)N(C)C1=O` [Example 140] ({cBuCO(3,3-F2-1-CF3)}-[Pro(trans-4-F)][Gly(cPr)][NMehhhLys(Me)]L[X28]; lactam 3-C) here?
A: The IC50 was 20 nM.

Q: What about the IC50 (CyclinE1/CDK2; [2]) of the same compound?
A: The IC50 was 120 nM.

Q: What about the GI50 (WI-38 cells) of the same compound?
A: Its GI50 is 9250 nM.

Q: And the GI50 (OVCAR3 cells)?
A: Its GI50 is 130 nM.

Q: What about the IC50 (CyclinB1/CDK1; [3]) of the same compound?
A: Its IC50 is 20 nM.

Q: And the GI50 (NCI-H1048 cells)?
A: Its GI50 is 50 nM.

Q: How did the IC50 (CyclinA2/CDK2) turn out when `CC(C)C[C@@H]1NC(=O)[C@@H](N(C)C(=O)[C@@H](NC(=O)[C@@H]2C[C@@H](F)CN2C(=O)C2(C(F)(F)F)CC(F)(F)C2)C2CC2)CCCCCCCN(C)C(=O)[C@H](Cc2cc(Cl)ccc2-c2cnn(CC#N)c2)N(C)C1=O` [Example 216] ({cBuCO(3,3-F2-1-CF3)}-[Pro(trans-4-F)][Gly(cPr)][NMehhhLys(Me)]L[X89]; lactam 3-C) was run?
A: Its IC50 is 30 nM.

Q: And the IC50 (CyclinE1/CDK2)?
A: Its IC50 is 470 nM.

Q: And the GI50 (WI-38 cells)?
A: Its GI50 is 15600 nM.

Q: What about the GI50 (OVCAR3 cells) of the same compound?
A: The GI50 was 10 nM.

Q: And the IC50 (CyclinB1/CDK1; read-out: Cyclin B FP IC50; 10 nM Cyclin B1/Cdk1, 2 nM FAM probe; average of 2-3 independent experiments)?
A: The IC50 was 20 nM.

Q: What about the GI50 (NCI-H1048 cells) of the same compound?
A: The GI50 was 10 nM.

Q: Which IC50 (CyclinA2/CDK2; [1]) does the source give for `CC(C)C[C@@H]1NC(=O)[C@@H](N(C)C(=O)[C@@H](NC(=O)[C@@H]2C[C@@H](F)CN2C(=O)C2(C(F)(F)F)CC(F)(F)C2)C2CC2)CCCCCCCN(C)C(=O)[C@H](Cc2cc(Cl)ccc2-c2ccc(N3CCO[C@@H](CN(C)C)C3)cc2)N(C)C1=O` [Example 410] ({cBuCO(3,3-F2-1-CF3)}-[Pro(trans-4-F)][Gly(cPr)][NMehhhLys(Me)]L[X48]; lactam 3-C) here?
A: Its IC50 is 20 nM.

Q: And the IC50 (CyclinE1/CDK2; [2])?
A: Its IC50 is 650 nM.

Q: What about the GI50 (WI-38 cells) of the same compound?
A: The GI50 was 2000 nM.

Q: And the GI50 (OVCAR3 cells)?
A: Its GI50 is 10 nM.

Q: And the IC50 (CyclinB1/CDK1; [3])?
A: Its IC50 is 20 nM.

Q: What about the GI50 (NCI-H1048 cells) of the same compound?
A: The GI50 was 10 nM.
